Data from patent US12060310B2, “Compositions and methods of using itaconic acid derivatives” (ERGON PHARMACEUTICALS, LLC, priority 2018, dated 2024).
“Also recorded” adds a separate entry of the source.

Key:
[1] = test system: C6-IRG1-9 rat glioma cells; assay: C6-IRG1-9 rat glioma cell proliferation (CyQuant); type: cell-based; conditions: various concentrations, 48 hrs; FIG. 3
Method: Tumor Cell Proliferation Assay. This assay was used to assess the anti-tumor properties of a therapeutic agent in vitro. In a typical proliferation assay, cells were cultured to near confluency in the appropriate media. Subsequently, the cells were trypsinized and plated onto 96-well plates at 2,000 or 5,000 cell per well. The cells were cultured for 48 to 96 hours in the presence or absence of the therapeutic agent. Cell proliferation was then determined using spectrophotometry (MTT assay, BrdU assay) or fluorimetry (Cyquant assay).
Inhibition of C6-IRG1-9 Rat Glioma cell proliferation. C6-IRG1-9 cells are rat C6 glioma cells that have been transfected to overexpress IRG1. Overexpression of IRG1 is maintained by culturing the cells in DMEM media containing 0.55 μg/mL puromycin. For the proliferation assays, the cells were plated onto a 96-well plate at a density of 2,000 cells/well. The cells were allowed to adhere overnight; they were subsequently treated with various concentrations of compounds of Formula (2) for 48 hrs. At the end of the incubation period, the number of cells is assessed using the CyQuant Cell Proliferation kit (Thermo Fisher) according to the manufacturer's instructions. The results, shown in FIG. 3, indicate that compounds of Formula (2) are able to reduce or abrogate growth of C6-IRG1-9 cells. In FIG. 3, cell proliferation is expressed as % Untreated Control, defined as: (t−s)*100/(c−s), where t is the number of cells present in a treated well at the end of the incubation period, c is the number of cells present in an untreated well at the end of the incubation period, and s is the initial number of cells in the wells prior to initiation of treatment.

M-MDSCs in CT26 tumors = assay: Tumor immunophenotyping of CT26 tumors (MDSCs); type: in vivo, mouse; conditions: 0.2 mg/kg ip, twice a day; tumors 250-1500 mm^3; FIG. 7
Method: Tumor Immunophenotyping. To determine the effect of a therapeutic agent on a specific immune cell type in vivo, syngeneic tumor models were employed. In a typical experiment, tumors were allowed to grow to a certain size and were then treated for a specific number of days prior to termination. At the end of the experiment, animals were euthanized, tumors were excised and single cell suspensions were immediately obtained through dissociation of tumor tissues with collagenase. Tumor cell suspensions were then subject to FACS analysis in order to determine the presence of various biomarkers.
Tumor Immunophenotyping of CT26 Tumors. CT26-tumor bearing mice treated with either vehicle control or 0.2 mg/kg Compound (6) (ip, twice a day) were euthanized when the tumors had reached a size of 250-1500 mm^3. Tumors were excised and single cell suspensions were obtained using the tumor dissociation kit from Miltenyi Biotec per manufacturer's instructions. The suspensions were analyzed for the presence of MDSCs.

IRG1 = biological target: T1, IRG1 (Homo sapiens, UniProt A6NK06); assay: Itaconic acid synthesis by LPS-stimulated macrophages (inhibition of IRG1), GC-MS; type: cell-based; conditions: LPS-stimulated hMDMs; pretreated 50, 100, 500 μM for 15 min, LPS 8 hrs; FIG. 1
T1 construct: Human monocytes, isolated from peripheral blood and differentiated into macrophages; endogenous in cells; host or cells: human monocyte-derived macrophages (hMDMs), M-CSF differentiated, LPS stimulated
T1 sequence (A6NK06 1-481): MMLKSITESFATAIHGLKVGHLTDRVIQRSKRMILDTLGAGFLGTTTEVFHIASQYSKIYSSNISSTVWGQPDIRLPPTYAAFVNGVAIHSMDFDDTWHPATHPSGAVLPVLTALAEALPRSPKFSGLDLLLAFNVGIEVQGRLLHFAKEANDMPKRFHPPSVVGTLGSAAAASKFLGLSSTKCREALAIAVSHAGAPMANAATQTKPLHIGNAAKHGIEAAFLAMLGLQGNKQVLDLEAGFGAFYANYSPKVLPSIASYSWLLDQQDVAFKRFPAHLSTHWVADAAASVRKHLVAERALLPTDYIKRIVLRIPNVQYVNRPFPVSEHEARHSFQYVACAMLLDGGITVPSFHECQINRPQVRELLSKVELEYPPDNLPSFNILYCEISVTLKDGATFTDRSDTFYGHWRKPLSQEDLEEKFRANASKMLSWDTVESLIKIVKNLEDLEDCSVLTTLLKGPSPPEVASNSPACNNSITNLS
Method: Inhibition of IRG1. Itaconic acid levels are a measure of IRG1 expression/activity. To determine the activity of IRG, hMDMs were stimulated with 100 ng/ml LPS for 8 hrs in the presence or absence of the therapeutic agent. Gas chromatography-mass spectroscopy (GC-MS) was used to estimate the intracellular and extracellular concentration of the itaconic acid. In a typical assay, 1-5×10^6 cells were plated onto a 6-well plate and allowed to adhere overnight. The cells were then stimulated with 0.1-1 μg/mL LPS in the presence or absence of the compound of interest for 8 hrs. The cells were then washed and metabolites were extracted using methanol/water and acetonitrile additions. The aqueous phase of the mixture was dried and metabolites present were derivatized prior to the detection by GC-MS.
Itaconic Acid Synthesis by LPS-Stimulated Macrophages after Treatment with Compound (6). Human monocytes, isolated from peripheral blood and differentiated into macrophages in the presence of 100 ng/ml monocyte colony-stimulating factor (M-CSF) for 5 days, were plated onto a 6-well plate at a density of 1×10^6 cells/well. The cells were allowed to adhere overnight. […] Derivatized metabolites were analyzed by GC-MS. The amount of itaconic acid present in the samples was determined after peak integration. […]

[2] = test system: TNFα secretion from LPS-stimulated human monocyte derived macrophages (hMDMs); assay: Inhibition of TNFα secretion (in vitro inflammation assay), ELISA; type: cell-based; conditions: 1 μg/mL LPS, 6 h, concentrations ≥500 μM, FIG. 2
Method: In Vitro Inflammation Assay. In vitro inflammation was assessed by measuring the concentration of TNFα in the conditioned media of macrophages stimulated with 0.1-1 μg/mL LPS in the presence or absence of the compound of interest after 4-6 hrs.
Inhibition of TNFα secretion. hMDMs were pretreated with various concentrations of Compound (6) for 15 min and then stimulated with 1 μg/mL LPS. Conditioned media were collected 6 h later and TNFα concentrations were determined by ELISA.

[3] = test system: TCR-activated hCD8+ T cells; assay: CD8+ T cell proliferation (CFSE dilution, flow cytometry); type: cell-based, human; conditions: 10 nM; versus untreated TCR-activated control cells; FIG. 4
Method: Augmentation of CD8^+ T Cell Proliferation. Naïve hCD8^+ T cells were isolated from commercially available buffy coats using magnetic separation and the appropriate kit from Miltenyi Biotec. Cells were then subject to TCR activation using a cocktail of anti-CD2/anti-CD3/anti-CD28 antibodies. Untreated control and treated cells were included in the experiment. The cells were cultured for 72 hrs in TexMACS media (Miltenyi Biotec) without IL-2 and for an additional 48 hrs in TexMACS media containing 20 U human IL-2/mL. Cell division was assessed by flow cytometry using the carboxyfluorescein succimidyl ester (CFSE) dilution method.

[4] = test system: TCR-activated hCD8+ T cells; assay: hCD8+ T cell differentiation into effector T cells (IFNγ and GZMB release, ELISA); type: cell-based, human
Method: Differentiation of T Cells. The ability of T cells to differentiate from a naïve to an effector state was assessed by measuring the levels of IFNγ or GZMB synthesis following activation of the cells using a cocktail of anti-CD2/anti-CD3/anti-CD28 antibodies. Expression of IFNγ, GZMB, and other effector cytokines was measured by determining their concentration in the conditioned media 24-72 hrs after initiation of activation or by estimating the % cells expressing these cytokines using fluorescence-activated cell sorting (FACS).
Augmentation of hCD8^+ T Cell Differentiation into Effector T Cells. Naïve CD8+ T cells were isolated from human buffy coats using magnetic separation and the appropriate kit from Miltenyi Biotec. Cells were then activated using a cocktail of anti-CD2/anti-CD3/anti-CD28 antibodies. Differentiation of the cells into effector T cells was assessed by determining the levels of IFNγ and GZMB released into the media at 24 and 72 hrs, respectively using appropriate ELISA kits. Cytokine concentrations were normalized per number of cells present and expressed as % Untreated Control.

[5] = test system: CT26 mouse colorectal tumors; assay: Survival of CT26 tumor-bearing mice (in vivo anti-tumor effect)
Method: In Vivo Anti-Tumor Effect. The anticancer properties of the therapeutic agent were evaluated in vivo by determining the ability of the agent to suppress tumor growth and/or increase survival of tumor-bearing animals. In a typical experiment, 0.1-1×10^6 tumor cells, suspended in PBS containing 20% Matrigel, were injected subcutaneously in the right flank of each mouse. When the tumors became palpable, the animals were randomized into different groups and treatment began. In vivo tests routinely included a vehicle control group and different doses and/or routes of administration of the therapeutic agent. Tumor growth was assessed using calipers and the following formula: Tumor Volume=length×width×width×½
The Kaplan-Meier analysis was used to estimate the survival probability of the tumor-bearing animals.
C57BL/6 mice were injected subcutaneously in the right flank with 1×10^5 CT26 mouse colorectal tumor cells, suspended in PBS containing 20% Matrigel. The tumors were allowed to grow to ˜100 mm^3. The mice were randomized into two groups (n=6 animals/group): one group received vehicle control and the other group was treated with i.p. injections of 0.2 mg/kg Compound (6) twice a week (Tuesday-Thursday). The experiment continued for 27 days, at which point the mortality rate of control animals was 80%. […] The experiment was repeated (FIG. 6B). In FIG. 6B, treated animals received oral administrations of 3 mg/kg Compound (6) twice a day.

[6] = test system: trimethylated lysine site 4 of histone 3 (H3K4me3); assay: Epigenetic modification, Western immunoblotting of H3K4me3; type: cell-based, human; conditions: 10 μM, 72 hrs, TCR-activated hCD8+ T cells; FIG. 5
Method: Epigenetic Modifications. The ability of a therapeutic agent to alter acetylation and/or methylation of histones was assessed by Western Immunoblotting. Briefly, immune and other type cells were collected after being exposed to the therapeutic agent or vehicle control for a specific period of time, typically 24-72 hrs. They were then lysed and cell lysates from control and treated cells contained equal amounts of proteins were subjected to SDS-PAGE electrophoresis. The presence of acetylated and methylated histone sites was determined by Western Immunoblotting using appropriate antibodies.
Epigenetic Modification. TCR-activated hCD8^+ T cells were exposed to 0 or 10 µM Compound (6) for 72 hrs prior to lysing. Equal amounts of cell lysates were subjected to gel electrophoresis and Western immunoblotting against trimethylated lysine site 4 of histone 3 (H3K4me3). The experiment also included cell lysates from naïve cells. Image J was used for protein quantification. Western immunoblotting against histone 3 (H3) was also performed for normalization purposes. […] Exposure of the hCD8^+ T cells to 10 μM Compound (6) led to the depletion of trimethylated H3K4. H3K4me3 is commonly associated with activation of transcription.

[7] = 3 mg/kg oral twice a day, end of experiment

## CC(C)=C(CC(=O)O)C(=O)O [(3), 2-(propan-2-ylidene)butanedioic acid]
[1]
  cell proliferation of C6-IRG1-9 cells: inhibition of proliferation

## O=C(O)CC(=Cc1ccccc1)C(=O)O [(4), 2-(phenylmethylidene)butanedioic acid]
[1]
  cell proliferation of C6-IRG1-9 cells: inhibition of proliferation

## C=CCC(C(=O)O)/C(=C/c1ccc(F)cc1)C(=O)O (stereo not drawn) [(7), 2-[(4-flurophenyl)methylidene]-3-(prop-2-ene-1-yl)butanedioic acid]
[1]
  cell proliferation of C6-IRG1-9 cells: inhibition of proliferation

## O=C(O)CC(=Cc1ccc(F)cc1)C(=O)O [Compound (5), 2-[(4-fluorophenyl)methylidene]butanedioic acid]
[1]
  cell proliferation of C6-IRG1-9 cells: inhibition of proliferation

## O=C(O)/C(=C\c1ccc(F)cc1)C(Cc1ccccc1)C(=O)O (stereo not drawn) [Compound (6), 2-benzyl-3-[(4-flurophenyl)methylidene]butanedioic acid]
M-MDSCs in CT26 tumors
  intratumoral frequency of M-MDSCs: significantly reduces
IRG1
  extracellular levels of itaconic acid: suppressed
  intracellular levels of itaconic acid: suppressed
[2]
  secretion of TNFα: inhibits in vitro inflammation; also recorded: reduced secretion
[3]
  proliferation of hCD8+ T cells: increased proliferation
[4]; high (>100 μM) concentrations
  IFNγ synthesis: decrease
[4]; low concentrations
  production of GZMB: increase production
[4]; low concentrations, range of 0.1 nM to 100 µM
  synthesis of INFγ following TCR activation: increased synthesis
[5]; 0.2 mg/kg i.p. twice a week, 27 days, versus vehicle control, FIG. 6A
  survival (Kaplan-Meier) of CT26 tumor-bearing mice: survival advantage
[5]; [7]
  animals with complete tumor regression: ⅙
  mice exhibiting slower tumor growth: ⅚
[5]; 3 mg/kg orally twice a day, FIG. 6B
  survival of CT26 tumor-bearing mice: increased survival
[6]
  trimethylated H3K4 (H3K4me3/H3 ratio): depletion
[1]
  cell proliferation of C6-IRG1-9 cells: inhibition of proliferation
